Data set [1] in a line: Sodium caprate (C10) solution compatibility of iron compounds, with centrifugation test for precipitation. The format is physicochemical. To be noted: in 55 mg/mL sodium caprate (C10). The method, then:
A test for precipitation was carried out. The solution formulations were centrifuged initially at 1000 rpm for 5 minutes. […] They were further centrifuged at 5000 rpm for 5 minutes.

A short description of data set [2]: Solution stability of sodium EDTA Fe+3 chelate with sodium caprate (visual observation). The format is physicochemical. The note with it: sodium caprate 55 mg/mL.

With `NCC(=O)[O-].NCC(=O)[O-].[Fe+2]` [Ferrous Bisglycinate (Ferrochel), Ferrous Bisglycinate], in data set [1], the “Sodium caprate solution compatibility (observation)” value is on record as “precipitates in the presence of C10”.

As for `O=C(O)CN(CCN(CC(=O)O)CC(=O)O)CC(=O)O.[Fe+3].[Na+]` [sodium EDTA iron chelate, ethylenediaminetetraacetic acid ferric sodium], the “Compatibility with sodium caprate formulation (pre-formulation)” value in data set [2] is reported as “no gross incompatibility”.

Turning to “Ferrous Gluconate [Ferrous Gluconate FCC/USP*]”, the “Sodium caprate solution compatibility (observation)” value in data set [1] is listed as “C10 incompatibility”.

Values taken from US8802114B2, “Pharmaceutical compositions of iron for oral administration” (priority 2011, dated 2014).
